We go through 12 compounds from ChEMBL document CHEMBL4765292, “Flexible diaminodihydrotriazine inhibitors of Plasmodium falciparum dihydrofolate reductase: Binding strengths, modes of binding and their antimalarial activities” (Eur J Med Chem, 2020).

pIC50, pKi: −log10 of the molar value.

The nature of series [1]: Therapeutic index, ratio of IC50 for African green monkey Vero cells to IC50 for Plasmodium falciparum TM4/8.2. It counts as toxicity. The note with it: against Plasmodium falciparum TM4/8.2, read-out: Ratio IC50.
The subject of series [2] is Plasmodium falciparum. In words: Antimalarial activity against Plasmodium falciparum K1CB1 harboring DHFR […] mutant infected in human erythrocytes assessed as reduction in [3H]-hypoxanthine incorporation pretreated for 20 hrs followed by [3H]-hypoxanthine addition measured after 20 hrs by radioactivity method. It counts as functional, organism-based. The conditions noted are these: K1CB1, Erythrocyte.

Series [3] can be described thus: Inhibition of Plasmodium falciparum DHFR expressed in Escherichia coli BL21 using DHF as substrate by spectrophotometric analysis.
Series [4] concerns Plasmodium falciparum. In words: Antimalarial activity against Plasmodium falciparum V1/S harboring DHFR N51I/C59R/S108N/I164L mutant infected in human erythrocytes assessed as reduction in [3H]-hypoxanthine incorporation pretreated for 20 hrs followed by [3H]-hypoxanthine addition measured after 20 hrs by radioactivity method. It counts as functional, organism-based. The conditions noted are these: Erythrocyte.

Series [5] in a line: Inhibition of Plasmodium falciparum DHFR C59R/S108N/I164L mutant expressed in Escherichia coli BL21 using DHF as substrate by spectrophotometric analysis.
Series [6] in a line: Inhibition of Plasmodium falciparum DHFR N51I/C59R/S108N/I164L mutant expressed in Escherichia coli BL21 using DHF as substrate by spectrophotometric analysis.
In series [7] the test system is Plasmodium falciparum. In words: Antimalarial activity against Plasmodium falciparum TM4/8.2 infected in human erythrocytes assessed as reduction in [3H]-hypoxanthine incorporation pretreated for 20 hrs followed by [3H]-hypoxanthine addition measured after 20 hrs by radioactivity method. It counts as functional, organism-based.
The nature of series [8]: Inhibition of Plasmodium falciparum DHFR N51I/C59R/S108N mutant expressed in Escherichia coli BL21 using DHF as substrate by spectrophotometric analysis.
The test system of series [9] is DHFR (human against Plasmodium falciparum DHFR N51I/C59R/S108N/I164L mutant). In words: Selectivity index, ratio of Ki for human DHFR expressed in Escherichia coli BL21 to Ki for Plasmodium falciparum DHFR N51I/C59R/S108N/I164L mutant expressed in Escherichia coli BL21. It counts as toxicity. The conditions noted are these: read-out: Ratio Ki.
For series [10], the system named is Plasmodium falciparum. The series can be described thus: Antimalarial activity against Plasmodium falciparum W2 harboring DHFR N51I/C59R/S108N mutant infected in human erythrocytes assessed as reduction in [3H]-hypoxanthine incorporation pretreated for 20 hrs followed by [3H]-hypoxanthine addition measured after 20 hrs by radioactivity method. It counts as functional, organism-based. The conditions noted are these: W2, Erythrocyte.

Series [11] deals with Plasmodium falciparum. In words: Antimalarial activity against Plasmodium falciparum CsI-2 harboring DHFR C59R/S108N/I164L mutant infected in human erythrocytes assessed as reduction in [3H]-hypoxanthine incorporation pretreated for 20 hrs followed by [3H]-hypoxanthine addition measured after 20 hrs by radioactivity method. It is filed as functional, organism-based. The conditions noted are these: CsI-2, Erythrocyte.

Series [12] in a line: Therapeutic index, ratio of IC50 for African green monkey Vero cells to IC50 for Plasmodium falciparum K1CB1 harboring DHFR […] mutant. It counts as toxicity. The note with it: read-out: Ratio IC50.
Series [13] can be described thus: Inhibition of Plasmodium falciparum DHFR A16V/S108T mutant expressed in Escherichia coli BL21 using DHF as substrate by spectrophotometric analysis.
Series [14] relates to DHFR (human against Plasmodium falciparum DHFR). In words: Selectivity index, ratio of Ki for human DHFR expressed in Escherichia coli BL21 to Ki for Plasmodium falciparum DHFR expressed in Escherichia coli BL21. It is filed as toxicity. The note with it: read-out: Ratio Ki.
The next series has as its system Vero. In words: Cytotoxicity against African green monkey Vero cells assessed as reduction in cell viability incubated for 72 hrs by SRB assay. It counts as cell-based. The note with it: Chlorocebus sabaeus. On the technique in general: The SRB assay estimates cell density from bound dye.
Series [15] is described as follows: Inhibition of Plasmodium falciparum DHFR […] mutant expressed in Escherichia coli BL21 using DHF as substrate by spectrophotometric analysis.
The nature of series [16]: Therapeutic index, ratio of IC50 for African green monkey Vero cells to IC50 for Plasmodium falciparum V1/S harboring DHFR N51I/C59R/S108N/I164L mutant. It is filed as toxicity. The conditions noted are these: read-out: Ratio IC50.
In series [17] the test system is DHFR (human against Plasmodium falciparum DHFR double mutant). The series can be described thus: Selectivity index, ratio of Ki for human DHFR expressed in Escherichia coli BL21 to Ki for Plasmodium falciparum DHFR double mutant expressed in Escherichia coli BL21. It is filed as toxicity. The conditions noted are these: read-out: Ratio Ki.
Series [18] has as its system Plasmodium falciparum. The series can be described thus: Antimalarial activity against Plasmodium falciparum T9/94 RC17 harboring DHFR A16V/S108T mutant infected in human erythrocytes assessed as reduction in [3H]-hypoxanthine incorporation pretreated for 20 hrs followed by [3H]-hypoxanthine addition measured after 20 hrs by radioactivity method. It counts as functional, organism-based. The conditions noted are these: T9/94 RC17, Erythrocyte.

`Cc1ccc(C)c(NCCCON2C(N)=NC(N)=NC2(C)C)c1`: the selectivity ratio in series [1] is over 1920; in [9], 33; in series [12], over 500; in [14] it was 155; in series [16] it was over 143; in [17] it was 113. Also, the pIC50 (commonly −log10 of the IC50, conventionally taken in molar units) was 7.00 in the series on Plasmodium falciparum [2]; 6.46 with Plasmodium falciparum [4]; 7.59 with Plasmodium falciparum [7]; 7.37 with Plasmodium falciparum [10]; 6.51 with Plasmodium falciparum [11]; under 4.30 in the series with Vero. The pKi (commonly the negative decadic logarithm of the Ki, by convention in mol/L) in series [3] is 9.10; in [5] it was 8.82; in series [6], 8.42; in [8] it was 8.85; in series [13], 8.39; in series [15], 8.96.

As to `CC1N=C(N)N=C(N)N1OCCCOc1cccc(Cl)c1Cl` (stereo not drawn), the selectivity ratio in series [1] worked out at 4550; in series [9], 16; in series [12] it was 1000; in series [14] it was 49; in series [16] it was 28; in [17], 33. Besides, the pIC50 was 8.23 with Plasmodium falciparum [2]; 6.68 with Plasmodium falciparum [4]; 8.89 with Plasmodium falciparum [7]; 6.82 with Plasmodium falciparum [10]; 7.21 with Plasmodium falciparum [11]; 5.23 in the series on Vero. The pKi was 9.40 in series [3]; 8.92 in series [5]; 8.92 in series [6]; 9.22 in [8]; 8.74 in series [13]; 9.22 in series [15].

On to `CC1(C)N=C(N)N=C(N)N1OCCSc1ccc(Cl)cc1`, for which the selectivity ratio in series [1] amounted to 4000; in series [9], 8; in series [12] it was 378; in series [14], 84; in series [16] it was 26; in series [17] it was 32. For the same compound, the pIC50 in the series on Plasmodium falciparum [2] was 7.43; in the series on Plasmodium falciparum [4] it was 6.27; in the series with Plasmodium falciparum [7] it was 8.46; with Plasmodium falciparum [10] it was 7.62; in the series with Plasmodium falciparum [11], 7.49; with Vero, 4.85. For the same compound, the negative logarithm of the Ki (pKi) in series [3] was 9.52; in series [5], 8.74; in series [6] it was 8.52; in [8], 9.10; in series [13], 8.82; in series [15], 9.10.

Take `CN(CCCON1C(N)=NC(N)=NC1(C)C)c1ccc(Cl)c(Cl)c1`: the selectivity ratio amounted to 64000 in series [1]; 10 in series [9]; 1040 in [12]; 30 in [14]; 115 in [16]; 39 in [17]. In addition, the pIC50 was 7.49 in the series on Plasmodium falciparum [2]; 6.54 in the series with Plasmodium falciparum [4]; 9.28 in the series on Plasmodium falciparum [7]; 7.55 with Plasmodium falciparum [10]; 6.85 in the series with Plasmodium falciparum [11]; 4.48 with Vero. In addition, the pKi in [3] was 8.89; in series [5], 8.64; in series [6], 8.41; in series [8], 8.82; in series [13], 8.40; in [15], 9.00.

With `CC1(C)N=C(N)N=C(N)N1OCCNS(=O)(=O)c1ccc([N+](=O)[O-])cc1`, the pIC50 is 5.51 with Plasmodium falciparum [2]; 5.46 with Plasmodium falciparum [4]; 5.66 in the series on Plasmodium falciparum [7]; 5.46 with Plasmodium falciparum [18]; 5.44 in the series with Plasmodium falciparum [10]; 5.46 in the series with Plasmodium falciparum [11]. In addition, the pKi in series [3] was 8.49; in series [5] it was 6.64; in series [6], 6.63; in series [8] it was 7.75; in series [13], 6.65; in series [15], 8.01.

For `NC1=NC(c2ccccc2)N(OCCCc2ccccc2)C(N)=N1` (stereo not drawn), the pIC50 in the series on Plasmodium falciparum [2] is 6.72; in the series with Plasmodium falciparum [4], 5.32; with Plasmodium falciparum [7] it was 7.70; in the series with Plasmodium falciparum [18] it was 9.28; with Plasmodium falciparum [10] it was 6.89; in the series with Plasmodium falciparum [11], 5.35. Further, the pKi in series [3] is 8.66; in series [5], 8.49; in [6], 8.44; in series [8], 9.22; in [13], 8.15; in series [15], 9.05.

Regarding `CC1(C)N=C(N)N=C(N)N1OCC(=O)Nc1ccc(Cl)cc1`, the pIC50 in the series with Plasmodium falciparum [2] is 5.40; with Plasmodium falciparum [4], 4.78; in the series with Plasmodium falciparum [7], 5.52; in the series on Plasmodium falciparum [18] it was 5.30; in the series on Plasmodium falciparum [10], 5.43; in the series on Plasmodium falciparum [11], 5.10. Also, the pKi in series [3] was 8.64; in [5], 8.06; in series [6], 8.01; in series [8], 8.40; in series [13] it was 7.25; in series [15], 8.42.

On to `CC1(C)N=C(N)N=C(N)N1OCCNS(=O)(=O)c1ccc(Cl)cc1`, for which the pIC50 was 5.23 in the series with Plasmodium falciparum [2]; under 4.30 with Plasmodium falciparum [4]; 5.92 in the series on Plasmodium falciparum [7]; 5.42 in the series with Plasmodium falciparum [18]; 4.90 in the series with Plasmodium falciparum [10]; 4.60 in the series with Plasmodium falciparum [11]. Besides, the pKi in [3] is 8.89; in series [5], 6.94; in series [6] it was 6.90; in series [8], 7.99; in [13], 6.88; in series [15] it was 8.33.

On to `CC1(C)N=C(N)N=C(N)N1OCCCSC1CCCCC1`, for which the pIC50 in the series on Plasmodium falciparum [2] is 6.59; with Plasmodium falciparum [4] it was 5.46; in the series with Plasmodium falciparum [7], 8.48; in the series with Plasmodium falciparum [18] it was 8.16; in the series on Plasmodium falciparum [10], 6.72; in the series on Plasmodium falciparum [11], 6.59. Moreover, the pKi is 9.22 in series [3]; 8.82 in series [5]; 8.85 in series [6]; 9.10 in series [8]; 8.52 in series [13]; 8.96 in [15].

As for `CC1(C)N=C(N)N=C(N)N1OCCNS(=O)(=O)c1ccccc1`, the pIC50 is 5.00 in the series on Plasmodium falciparum [2]; 4.11 in the series on Plasmodium falciparum [4]; 5.36 in the series with Plasmodium falciparum [7]; 4.82 with Plasmodium falciparum [18]; 4.59 with Plasmodium falciparum [10]; 4.12 in the series on Plasmodium falciparum [11]. Besides, the pKi was 8.57 in series [3]; 6.77 in series [5]; 6.63 in [6]; 8.24 in series [8]; 6.67 in series [13]; 8.32 in series [15].

For `NC1=NC(c2ccccc2)N(OCCCOc2ccc(Cl)cc2)C(N)=N1` (stereo not drawn), the pIC50 in the series on Plasmodium falciparum [2] was 7.07; in the series with Plasmodium falciparum [4], 5.64; in the series on Plasmodium falciparum [7], 7.92; in the series with Plasmodium falciparum [18] it was 9.24; with Plasmodium falciparum [10], 7.00; with Plasmodium falciparum [11], 6.14. In addition, the pKi in [3] was 9.40; in series [5], 9.10; in series [6] it was 9.30; in [8] it was 9.10; in [13], 8.80; in series [15], 8.96.

As for `NC1=NC(c2ccccc2)N(CCCOc2cc(Cl)c(Cl)cc2Cl)C(N)=N1` (stereo not drawn), the negative logarithm of the IC50 (pIC50) is 5.54 in the series on Plasmodium falciparum [2]; 5.59 with Plasmodium falciparum [4]; 6.12 in the series with Plasmodium falciparum [7]; 7.74 in the series with Plasmodium falciparum [18]; 5.64 in the series on Plasmodium falciparum [10]; 5.51 with Plasmodium falciparum [11]. The pKi in [3] is 8.92; in [5], 8.25; in series [6] it was 8.24; in series [8], 8.59; in series [13], 8.14; in series [15], 8.68.
